Experiment: gradient 5% acetonitrile 3 min, to 50% in 2 min, to 85% in 15 min, held 3 min, 100 µL/min
Details: column: Zorbax Extend-C18 2.1 x 50 mm; eluents: water / acetonitrile, 0.1% formic acid
Method in brief: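 The mobile phases were water and acetonitrile, each with 0.1% formic acid, pumped at 100 μL/min through a Zorbax Extend-C18 column (2.1 × 50 mm, 1.8 μm). Pure standards were injected as mixtures of ~100 molecules and detected by a quadrupole time-of-flight mass spectrometer in positive and negative ionization mode. Retention time came from computationally picked adduct peaks, each inspected by hand.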

Structure (SMILES) | RP-LC retention time
CCCN1C(=O)COc2ccc(-c3noc(COc4ccccc4)n3)cc21 | 1100 s
CC1CCN(C(=O)C2CCN(S(C)(=O)=O)c3cc(Cl)ccc3O2)CC1 (stereo not given) | 922 s
CCOC(=O)c1ccc(NC(=O)NC2CC(=O)N(C3CCCC3)C2)cc1 (stereo not given) | 768 s
CCc1ccc(-c2ccc(-n3nc(C)c(S(=O)(=O)N4CCOCC4)c3C)nn2)cc1 | 1070 s
CN(C)CCn1c2c(c(SCC(=O)Nc3ccc(Br)cc3)nc1=O)CCC2 | 655 s
CCCNc1cc(N2CCCC(CCC(=O)NCC3CCCO3)C2)ncn1 (stereo not given) | 608 s
Cc1ccc(S(=O)(=O)CCc2nc3ccccc3n2CC(=O)O)cc1 | 607 s
COc1ccc(-c2ccc(=O)n(Cc3nc(-c4ccc(OC(C)C)cc4)no3)n2)cc1 | 1120 s
COC(=O)c1cccc(C(=O)NC2(c3nc(C)no3)CCCCC2)c1 | 849 s
Cn1ccnc1SCC(=O)Nc1nc(-c2ccc(F)cc2)cs1 | 639 s
CCCNc1cc(N2CCCC(CCC(=O)NCc3ccc(F)cc3)C2)ncn1 (stereo not given) | 683 s
O=C(c1ccccc1F)N1CCC(COCc2ccccc2)CC1 | 945 s
O=C(NCCN1CCCCC1)C1CCCN(c2ncc(-c3cccc(F)c3)cn2)C1 (stereo not given) | 696 s
O=c1n(Cc2ccc(F)cc2Cl)nc2c(S(=O)(=O)N3CCCC3)cccn12 | 1020 s
CCOC(=O)c1cn[nH]c1S(=O)(=O)N1CCC(C(N)=O)CC1 | 585 s
CCCn1ncc(N2CCC(C(=O)Nc3ccc(OC)cc3OC)CC2)cc1=O | 723 s
CC(C)c1nnc(-c2ccc(S(=O)(=O)N3CCOCC3)o2)o1 | 754 s
CSc1ccc(-c2nc3ccc(Cl)cn3c2Nc2ccc(C)cc2)cc1 | 954 s
CC(=O)N1CCN(c2nc3c(s2)CC(C(=O)Nc2cccc4c2CCCC4)CC3)CC1 (stereo not given) | 632 s
CC(C)NC(=O)C1CC(=O)N(C2CCCCC2)C1 (stereo not given) | 657 s
COc1ccc(-c2nc3cnccn3c2Nc2ccc(C(C)C)cc2)cc1 | 1040 s
c1cn(-c2ccc(-c3noc(-c4ccc5c(c4)OCO5)n3)cn2)cn1 | 853 s
O=C(Nc1nnc(Cc2ccccc2)s1)C1CCN(C(=O)c2cccc(F)c2)CC1 | 798 s
Cc1nc2cccnc2n1C1CCN(C(=O)Nc2ccc3c(c2)CCC3)C1 (stereo not given) | 620 s
CCOC(=O)c1ccc(NC2=NS(=O)(=O)C(c3ccccc3)=C2C)cc1 | 960 s

Structure (SMILES) | RP-LC retention time
COc1ccccc1-c1nnc(NC(=O)C2CCCN2S(=O)(=O)c2ccc(F)cc2)o1 (stereo not given) | 717 s
CC(=O)c1cccc(NC(=O)Cn2cc(-c3ccccc3)c3ncn(C4CC4)c(=O)c32)c1 | 877 s
CCOC(=O)C1CCN(c2cc3c(cc2NC(=O)CCC2CCCC2)n(C)c(=O)c(=O)n3C)CC1 | 999 s
O=C(NCc1ccco1)c1nc2ccccn2c1-c1ccccc1 | 783 s
Cc1ccc(CNC(=O)C2CCN(S(=O)(=O)c3ccc4c(c3)CCCC(=O)N4)CC2)o1 | 710 s
COC(=O)c1ccc(C(=O)NCC2CCS(=O)(=O)C2)cc1 (stereo not given) | 620 s
CCCCC(=O)N1CCc2c(c(C(=O)NCc3ccc4c(c3)OCO4)nn2C)C1 | 767 s
COc1ccc(OC)c(CNC(=O)c2cnc(OC)nc2)c1 | 700 s
CCn1c(=O)n(CC(=O)NC(C)C)c(=O)c2cnc(-c3ccccc3)nc21 | 863 s
CC(C)CNC(=O)c1ccc2c(ccn2C)c1 | 784 s
CN(C(=O)Cn1ccn2nc(-c3ccc(F)cc3)c(CO)c2c1=O)c1ccccc1 | 924 s
Cc1ccc(Cn2cc(-c3ccncc3)cc2C(=O)NCc2ccc(C)o2)cc1 | 734 s
O=C(Nc1nc(-c2ccc3ccccc3c2)cs1)c1ccc(Cl)cc1Cl | 1220 s
COc1ccccc1N1CCN(c2ncc(S(=O)(=O)c3ccc(C)cc3)c(N)n2)CC1 | 955 s
COc1ccc(CNC(=O)Cn2cc(-c3nnc(C)o3)ccc2=O)cc1 | 635 s
CC(=O)N1c2ccc(S(=O)(=O)N3CCCC3)cc2CC1C(=O)NCCc1ccccc1C (stereo not given) | 848 s
Cc1ccc(-c2csc(NC(=O)CCc3nc(CSc4nc5cc(C)ccc5o4)no3)n2)cc1 | 1210 s
O=C(Nc1cccc([N+](=O)[O-])c1)NC1CCS(=O)(=O)C1 (stereo not given) | 626 s
O=C(Cn1nc(-c2ccccc2)c2cc(Cl)ccc21)NC1CCCC1 | 1130 s
Cc1nc(-c2ccccc2)sc1C(=O)N1CCC(C(C)C(=O)N2CCOCC2)CC1 (stereo not given) | 728 s
CS(=O)(=O)N(C1CCOCC1)C1CCN(S(=O)(=O)Cc2ccccc2)CC1 | 779 s
COc1cc(NC(=O)Cc2csc3nc(-c4ccc(C)c(C)c4)cn23)cc(OC)c1 | 772 s
Cc1ccccc1CNC(=O)c1csc(-c2cn(C)c3ncccc23)n1 | 1120 s
Cc1ccc2c(c1)OCC(=O)N2Cc1nc(-c2ccc(Cl)c(F)c2)no1 | 1190 s

The next lines start with the values.

RP-LC retention time | Structure (SMILES)
971 s | Cc1cc(C)n(CC(=O)N2CCN(c3ccccc3F)CC2)c1-c1nc(C2CC2)no1
610 s | O=C(COc1ccccc1)N1CCCC(OCc2nc(C3CC3)no2)C1 (stereo not given)
605 s | COCCN(CCOC)Cc1c(C)[nH]c2c(C)c(C)ccc2c1=O
943 s | O=C(N[C@H]1C[C@@H]2C[C@H]1N(S(=O)(=O)c1ccc3c(c1)CCC3)C2)c1cccs1
656 s | O=C(Nc1ccc(F)cc1F)N1CCC(OC2CCN(Cc3ccccc3)CC2)CC1
796 s | CC(C)Cn1cc(CCNC(=O)c2cncc(Br)c2)c2cccnc21
628 s | CN(C)c1ccc(CNC(=O)c2ccc3c(c2)N(C)C(=O)C2CCCCN32)cc1 (stereo not given)
792 s | O=c1n(CCOc2ccccc2)nc2ccc(S(=O)(=O)N3CCOCC3)cn12
726 s | O=C(NCc1ccc(Br)cc1)c1cn2ccccc2n1
810 s | COc1ccc(C)cc1NC(=O)C1CCN(S(=O)(=O)c2cn(C(C)C)cn2)CC1
826 s | CC(C)Cn1nc(CNC(=O)c2cnccn2)c2ccccc21
870 s | CCOC(=O)CCCSc1nc2sc3c(c2c(=O)[nH]1)CCC3
603 s | CSc1nnc(NC(=O)CN(C)S(C)(=O)=O)s1
1000 s | CCOc1ccc(-n2cc(C(=O)OCC(=O)OC)c3ccccc3c2=O)cc1
628 s | O=C(c1csc(N2CCCC2)n1)N1CCOCC1
999 s | COCCN(CC(=O)N1CCc2sccc2C1COc1cccc(F)c1)C(=O)C1CCCC1 (stereo not given)
750 s | O=C(Nc1ccccc1)N1CCN(c2ncccc2-c2nnc(C3CC3)o2)CC1
804 s | COc1ccc(OC)c(NC(=O)NCC(=O)N2CCc3ccccc32)c1
701 s | Cc1ccc(CNc2nc3ccncc3n(C(C)C)c2=O)cc1
787 s | COc1cccc(-c2noc(NC3CC3)n2)c1
824 s | O=C(Nc1cccc(Br)c1)C1CC(=O)N(c2n[nH]c3cccc(F)c23)C1 (stereo not given)

RP-LC retention time | Structure (SMILES)
861 s | Cc1[nH]c(C(=O)N2CCCC(C(=O)NC3CCCCC3)C2)c(C)c1C(=O)OC(C)C (stereo not given)
950 s | Cc1ccc(Nc2nc(C)cc(N3CCN(S(=O)(=O)c4cc(C(C)C)ccc4C)CC3)n2)cc1
808 s | CCn1cc(C(=O)Nc2cccc(C(C)=O)c2)c2nn(-c3ccccc3)c(=O)c-2c1
561 s | COCC(C)(O)CNC(=O)c1cn(C)nc1OC (stereo not given)
648 s | Cc1nn(CCC(=O)NCCCN2CCc3ccccc3C2)c(=O)c2nn(-c3ccccc3)c(C)c12
588 s | CN(C)C(CNC(=O)C1(c2ccccc2)CCOCC1)c1cn(C)c2ccccc12 (stereo not given)
1100 s | CCc1ccc(NC(=O)CSc2cc(N3CCCCC3C)ncn2)cc1 (stereo not given)
689 s | COCC(=O)N1CCc2c(c(-c3nnc(-c4ccccc4Cl)o3)nn2C)C1
984 s | O=C(c1ccc(Br)o1)N1CCC(c2cnn(-c3ccc(F)cc3)c2)CC1
1120 s | CC1CCN(S(=O)(=O)c2cc(C(=O)N3CCN(c4cccc(Cl)c4)CC3)n(C)c2)CC1
879 s | CCCN1C(=O)c2c(C(=O)NCc3cccc(C)c3)ncn2CC1(C)C(=O)NCCC(C)C (stereo not given)
948 s | Cc1oc(-c2ccc(NC(=O)c3ccc(Br)cc3)cc2)nc1Cn1cccn1
704 s | O=C(CCNc1c(-c2ccc(F)cc2)nc2cnccn12)Nc1ccc2c(c1)OCCO2
816 s | O=c1n(Cc2cc(F)cc(F)c2)nc2ccc(S(=O)(=O)N3CCOCC3)cn12
775 s | COc1ccc2cc(C(=O)NCCC(=O)NCCc3c[nH]c4ccccc34)[nH]c2c1
721 s | CCOC(=O)c1csc(NC(=O)c2ccccc2[N+](=O)[O-])n1
735 s | O=C(Cc1ccc(F)cc1)N1CCCCC1c1nncn1CC1CC1 (stereo not given)
767 s | CCCc1ccc(S(=O)(=O)N2CCC(n3cnnc3C)CC2)cc1
674 s | Cc1ccc(Cl)cc1NC(=O)Cn1c(=O)cnc2cc(C(=O)NC3CC3)ccc21
818 s | Cc1ccc(C)c(Sc2ccc(N3CCC(C(=O)NCc4ccco4)CC3)nn2)c1

From the METLIN SMRT retention time set (Domingo-Almenara et al. 2019)
